Measured values as given in US20030119814A1, “Novel prodrugs of N-H bond-containing compounds and methods of making thereof” (The University of Kansas, priority 2001, published 2003).

What was measured:
[1] = rabbits; due to high thiols in the blood; cited from earlier work
physchem = settings: soybean oil, oil or lipid
[2] = Aqueous stability in buffer at 25 degrees Celsius; format: physicochemical; settings: for aqueous degradation kinetics: buffered aqueous solution, Ionic Strength 0.15M; for half-life: 35 mM Acetate Buffer, Ionic Strength 0.15M (NaCl)
Protocol: (§1) 1HNMR (300 MHz, DMSO-d6): □ 3.05 (d of d, 1H), 3.25 (d of d, 1H), 3.80 (broad), 4.15 (broad, 1H), 7.45 (t, 2H), 7.55 (t, 1H), 7.80 (d, 2H), 8.40 (broad), 9.60 (s, 1H). FAB+ 241.0 (M+1). […] When a 10 times molar excess of cysteine was added to the above solution, the model prodrug degraded (reverted to yield benzamide) with a half life of ˜20 to 30 minutes. In addition, the above benzamide-cysteine model prodrug had improved aqueous solubility compared to benzamide.
(§2) 1HNMR (300 MHz, CDCl3): □ 1.15 (t, 3H), 3.10 (d of d, 11H), 3.70 (d of d, 11H), 3.95 (m, 2H), 4.70 (m, 1H), 5.05 (d of d, 2H), 6.25 (d, 1H), 7.35 (broad s, 5H), 7.75 (m, 2H), 7.90 (m, 2H). […] When a 10 times molar excess of cysteine was added to the above solution, the model prodrug degraded (reverted to yield phthalimide) instantaneously (kinetics were not measurable).
(§3) ^1HNMR (300 MHz, DMSO-d6): □ 1.15 (t, 3H), 2.85 (d of d, 1H), 3.05 (d of d, 1H), 4.05 (m, 1H), 4.15 (q, 2H), 6.95 (s, 2H), 7.10 (s, 1H), 7.35 (m, 2H), 7.40 (broad s, 6H), 8.40 (broad). FAB+ 384.1 (M+1).

[3] = Aqueous solubility compared to parent compound; format: physicochemical
Protocol: as §1, §3

[4] = Reversion of prodrug to parent on addition of 10 times molar excess of cysteine; format: physicochemical
Protocol: as §1, §2

[5] = within a pH range of 4.0 to 7.0, 25 degrees Celsius, projected by Eyring Plot

Row | Compound | solubility (physchem) | aqueous degradation kinetics [2] | pH of maximum stability [2, 5] | aqueous solubility compared to parent compound [3] | other results
1 | O=C1C2CC=CCC2C(=O)N1SC(Cl)(Cl)Cl (stereo not shown) [Captan, N-trichloromethylthio-4-cyclohexane 1,2-dicarboximide] |  |  |  |  | fate of active form in the body [1]: broken down in the body
2 | CCOC(=O)CCSN(CC1CN(c2ccc(N3CCOCC3)c(F)c2)C(=O)O1)C(C)=O (stereo not shown) [Example 10] | > 30 mg/mL |  |  |  | 
3 | CC(=O)N(CC1CN(c2ccc(N3CCOCC3)c(F)c2)C(=O)O1)Sc1ccccc1 (stereo not shown) [Example 11] | > 10 mg/mL |  |  |  | melting point: 120.9 °C
4 | NC(CSNC(=O)c1ccccc1)C(=O)O (stereo not shown) [Example 13] |  | Pseudo-first order degradation kinetics were observed | 6.0 | improved | half-life ([4]; phosphate buffer with 10 times molar excess of cysteine, 10 times molar excess of cysteine added to the phosphate buffer solution): 0.333 to 0.5 h
5 | CCOC(=O)C(CSN1C(=O)c2ccccc2C1=O)NC(=O)OCc1ccccc1 (stereo not shown) [Example 15] |  | did not show pseudo-first order kinetics |  |  | half-life ([2]; pH 3.5, 25 degrees Celsius): 8 to 9 days; pH of maximum stability ([2]; within a pH range of 3.5 to 5.0, 25 degrees Celsius): 3.5; degradation (reversion to parent) with cysteine ([4]; 10 times molar excess of cysteine added to the acetate buffer solution, kinetics not measurable): instantaneously
6 | CCOC(=O)C(N)CSNC(=O)N1c2ccccc2C=Cc2ccccc21 (stereo not shown) [Example 16] |  | Pseudo-first order degradation kinetics were observed | 4.0 | greatly improved | half-life ([2]; pH 4.0, 25 degrees Celsius, projected by Eyring Plot): ~181 days
